Assays:
Glucocorticoid receptor = target: T1, Glucocorticoid receptor (Homo sapiens, UniProt P04150); type: functional
T1 sequence (P04150 whole entry): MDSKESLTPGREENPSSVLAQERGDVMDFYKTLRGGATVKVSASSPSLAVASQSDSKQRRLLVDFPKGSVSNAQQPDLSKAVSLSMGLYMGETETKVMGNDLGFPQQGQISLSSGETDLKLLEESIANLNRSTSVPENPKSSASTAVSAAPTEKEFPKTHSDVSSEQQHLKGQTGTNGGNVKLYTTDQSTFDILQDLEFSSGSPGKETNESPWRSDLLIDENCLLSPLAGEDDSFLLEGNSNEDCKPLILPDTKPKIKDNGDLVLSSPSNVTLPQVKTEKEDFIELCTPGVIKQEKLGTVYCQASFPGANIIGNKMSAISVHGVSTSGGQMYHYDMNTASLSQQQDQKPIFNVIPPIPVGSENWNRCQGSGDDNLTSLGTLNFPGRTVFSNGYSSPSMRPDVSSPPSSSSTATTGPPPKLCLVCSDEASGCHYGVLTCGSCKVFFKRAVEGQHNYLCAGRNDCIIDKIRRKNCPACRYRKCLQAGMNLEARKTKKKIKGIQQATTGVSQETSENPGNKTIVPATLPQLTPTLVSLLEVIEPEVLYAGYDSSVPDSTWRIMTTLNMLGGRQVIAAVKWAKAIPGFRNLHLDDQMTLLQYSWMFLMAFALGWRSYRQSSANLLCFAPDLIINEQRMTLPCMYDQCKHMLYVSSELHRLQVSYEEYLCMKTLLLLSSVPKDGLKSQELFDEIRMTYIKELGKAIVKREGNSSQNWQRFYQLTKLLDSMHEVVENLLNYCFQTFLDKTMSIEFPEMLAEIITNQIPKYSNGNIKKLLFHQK

[1] = target: T2, Muscarinic acetylcholine receptor M1 (Homo sapiens, UniProt P11229); type: functional
T2 sequence (P11229 whole entry): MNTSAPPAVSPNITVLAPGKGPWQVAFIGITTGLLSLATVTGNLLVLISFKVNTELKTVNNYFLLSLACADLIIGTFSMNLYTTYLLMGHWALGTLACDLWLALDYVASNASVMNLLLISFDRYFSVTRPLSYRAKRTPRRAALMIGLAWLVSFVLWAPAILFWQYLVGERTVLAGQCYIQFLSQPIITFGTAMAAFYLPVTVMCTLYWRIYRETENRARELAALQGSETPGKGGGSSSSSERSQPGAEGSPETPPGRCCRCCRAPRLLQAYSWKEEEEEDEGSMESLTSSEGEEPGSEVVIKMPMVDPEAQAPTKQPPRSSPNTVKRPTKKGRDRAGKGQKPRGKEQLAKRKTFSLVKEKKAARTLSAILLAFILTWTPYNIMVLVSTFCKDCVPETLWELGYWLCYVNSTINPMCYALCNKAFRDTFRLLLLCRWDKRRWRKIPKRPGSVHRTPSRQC

Mu-type opioid receptor = Mu-type opioid receptor (Homo sapiens, UniProt P35372)
Chain of Mu-type opioid receptor (P35372 whole entry): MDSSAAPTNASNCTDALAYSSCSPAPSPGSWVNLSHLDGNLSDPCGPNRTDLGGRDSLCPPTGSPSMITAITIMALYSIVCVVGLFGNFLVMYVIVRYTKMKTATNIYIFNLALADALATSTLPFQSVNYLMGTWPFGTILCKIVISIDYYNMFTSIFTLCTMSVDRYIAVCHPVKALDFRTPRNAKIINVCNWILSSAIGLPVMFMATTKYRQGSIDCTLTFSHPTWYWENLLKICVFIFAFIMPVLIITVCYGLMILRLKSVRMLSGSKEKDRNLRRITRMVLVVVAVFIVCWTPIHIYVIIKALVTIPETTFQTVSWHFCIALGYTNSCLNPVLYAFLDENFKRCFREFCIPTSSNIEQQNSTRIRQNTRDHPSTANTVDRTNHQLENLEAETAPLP

[2] = target: Gamma-aminobutyric acid receptor subunit alpha-1/alpha-2/beta-2/gamma-2 (Homo sapiens, UniProt P14867+P18507+P47869+P47870); type: functional, cell-based
Cannabinoid receptor 1 = Cannabinoid receptor 1 (Homo sapiens, UniProt P21554); type: functional, cell-based
Chain of Cannabinoid receptor 1 (P21554 whole entry): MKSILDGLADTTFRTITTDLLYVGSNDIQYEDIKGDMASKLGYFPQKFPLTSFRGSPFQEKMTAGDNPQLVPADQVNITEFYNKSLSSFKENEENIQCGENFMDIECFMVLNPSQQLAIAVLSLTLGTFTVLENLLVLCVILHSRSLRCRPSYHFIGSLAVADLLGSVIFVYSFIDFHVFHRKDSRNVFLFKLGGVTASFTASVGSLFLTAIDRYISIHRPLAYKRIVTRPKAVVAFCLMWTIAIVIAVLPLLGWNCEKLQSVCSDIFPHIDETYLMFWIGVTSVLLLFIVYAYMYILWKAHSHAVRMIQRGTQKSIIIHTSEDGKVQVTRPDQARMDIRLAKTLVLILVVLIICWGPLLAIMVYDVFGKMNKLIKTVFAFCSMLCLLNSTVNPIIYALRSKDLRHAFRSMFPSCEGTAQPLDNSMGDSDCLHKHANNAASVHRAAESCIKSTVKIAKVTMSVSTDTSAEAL

[3] = target: T3, Muscarinic acetylcholine receptor M2 (Homo sapiens, UniProt P08172); type: functional, cell-based
T3 sequence (P08172 whole entry): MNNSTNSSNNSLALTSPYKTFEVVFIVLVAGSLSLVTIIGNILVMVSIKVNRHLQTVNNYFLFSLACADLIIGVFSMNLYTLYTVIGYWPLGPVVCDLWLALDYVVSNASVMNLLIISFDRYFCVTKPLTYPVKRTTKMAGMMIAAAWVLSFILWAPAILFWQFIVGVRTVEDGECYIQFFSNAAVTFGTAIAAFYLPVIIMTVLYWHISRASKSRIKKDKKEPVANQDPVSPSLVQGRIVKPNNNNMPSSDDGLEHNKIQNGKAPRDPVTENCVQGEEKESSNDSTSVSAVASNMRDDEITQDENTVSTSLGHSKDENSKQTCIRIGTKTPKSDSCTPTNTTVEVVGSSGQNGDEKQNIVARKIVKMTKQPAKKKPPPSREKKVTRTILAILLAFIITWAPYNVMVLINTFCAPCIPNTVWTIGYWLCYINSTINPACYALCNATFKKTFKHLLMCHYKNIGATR

[4] = target: Epidermal growth factor receptor (Homo sapiens, UniProt P00533); type: functional
Chain of Epidermal growth factor receptor (P00533 whole entry): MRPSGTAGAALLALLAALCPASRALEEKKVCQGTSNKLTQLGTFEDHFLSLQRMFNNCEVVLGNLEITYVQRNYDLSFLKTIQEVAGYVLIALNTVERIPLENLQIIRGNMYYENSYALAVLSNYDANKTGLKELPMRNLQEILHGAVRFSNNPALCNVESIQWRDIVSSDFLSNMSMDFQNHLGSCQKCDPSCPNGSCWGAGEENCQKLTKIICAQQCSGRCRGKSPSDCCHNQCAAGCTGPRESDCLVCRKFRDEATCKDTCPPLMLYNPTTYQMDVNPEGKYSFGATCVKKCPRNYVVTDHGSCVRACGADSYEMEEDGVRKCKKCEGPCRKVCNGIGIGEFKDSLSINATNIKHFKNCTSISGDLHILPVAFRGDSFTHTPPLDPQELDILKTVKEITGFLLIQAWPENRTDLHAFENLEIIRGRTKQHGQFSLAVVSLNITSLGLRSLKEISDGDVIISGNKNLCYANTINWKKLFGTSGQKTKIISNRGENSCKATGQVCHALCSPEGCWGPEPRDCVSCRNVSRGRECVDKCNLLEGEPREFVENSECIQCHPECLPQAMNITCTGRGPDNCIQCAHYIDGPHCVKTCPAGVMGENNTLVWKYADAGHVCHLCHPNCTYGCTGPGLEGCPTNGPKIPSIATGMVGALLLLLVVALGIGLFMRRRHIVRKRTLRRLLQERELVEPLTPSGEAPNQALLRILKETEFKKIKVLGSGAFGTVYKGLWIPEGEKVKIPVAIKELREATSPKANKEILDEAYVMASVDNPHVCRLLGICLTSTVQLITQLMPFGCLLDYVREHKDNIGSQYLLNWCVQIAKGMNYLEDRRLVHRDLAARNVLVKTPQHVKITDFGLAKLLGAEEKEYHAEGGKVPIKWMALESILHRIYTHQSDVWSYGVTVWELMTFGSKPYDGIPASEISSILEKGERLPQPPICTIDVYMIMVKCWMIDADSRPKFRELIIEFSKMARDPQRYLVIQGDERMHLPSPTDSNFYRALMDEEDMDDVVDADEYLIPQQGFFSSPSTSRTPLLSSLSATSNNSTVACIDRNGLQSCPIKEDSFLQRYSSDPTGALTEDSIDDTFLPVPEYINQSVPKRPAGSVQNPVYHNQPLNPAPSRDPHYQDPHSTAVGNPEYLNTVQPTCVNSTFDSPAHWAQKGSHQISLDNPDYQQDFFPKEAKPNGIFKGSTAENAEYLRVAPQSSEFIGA

[5] = target: T4, Neuropeptide Y receptor type 1 (Homo sapiens, UniProt P25929)
T4 sequence (P25929 whole entry): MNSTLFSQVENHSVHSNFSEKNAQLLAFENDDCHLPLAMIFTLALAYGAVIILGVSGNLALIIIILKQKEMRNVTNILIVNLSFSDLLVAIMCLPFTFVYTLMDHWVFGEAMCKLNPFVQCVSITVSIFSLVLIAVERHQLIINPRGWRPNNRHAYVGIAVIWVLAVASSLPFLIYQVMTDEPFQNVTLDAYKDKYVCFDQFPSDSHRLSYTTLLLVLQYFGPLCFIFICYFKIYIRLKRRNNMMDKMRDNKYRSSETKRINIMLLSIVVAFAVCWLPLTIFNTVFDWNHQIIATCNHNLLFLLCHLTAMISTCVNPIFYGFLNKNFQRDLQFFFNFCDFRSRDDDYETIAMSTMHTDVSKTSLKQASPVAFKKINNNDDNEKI

[6] = target: Beta-2 adrenergic receptor (Homo sapiens, UniProt P07550)
Chain of Beta-2 adrenergic receptor (P07550 whole entry): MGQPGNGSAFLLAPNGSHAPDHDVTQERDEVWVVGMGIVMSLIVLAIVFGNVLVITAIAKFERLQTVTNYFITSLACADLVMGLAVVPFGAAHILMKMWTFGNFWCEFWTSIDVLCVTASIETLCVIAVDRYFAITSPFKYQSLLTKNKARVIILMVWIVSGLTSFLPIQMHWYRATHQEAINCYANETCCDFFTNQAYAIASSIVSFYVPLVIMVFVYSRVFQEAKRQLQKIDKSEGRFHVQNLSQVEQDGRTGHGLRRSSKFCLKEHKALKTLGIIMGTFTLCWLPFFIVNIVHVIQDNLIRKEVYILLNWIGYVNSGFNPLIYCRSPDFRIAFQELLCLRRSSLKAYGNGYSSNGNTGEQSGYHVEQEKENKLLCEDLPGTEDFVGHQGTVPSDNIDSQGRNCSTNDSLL

[7] = target: Kappa-type opioid receptor (Homo sapiens, UniProt P41145)
Chain of Kappa-type opioid receptor (P41145 whole entry): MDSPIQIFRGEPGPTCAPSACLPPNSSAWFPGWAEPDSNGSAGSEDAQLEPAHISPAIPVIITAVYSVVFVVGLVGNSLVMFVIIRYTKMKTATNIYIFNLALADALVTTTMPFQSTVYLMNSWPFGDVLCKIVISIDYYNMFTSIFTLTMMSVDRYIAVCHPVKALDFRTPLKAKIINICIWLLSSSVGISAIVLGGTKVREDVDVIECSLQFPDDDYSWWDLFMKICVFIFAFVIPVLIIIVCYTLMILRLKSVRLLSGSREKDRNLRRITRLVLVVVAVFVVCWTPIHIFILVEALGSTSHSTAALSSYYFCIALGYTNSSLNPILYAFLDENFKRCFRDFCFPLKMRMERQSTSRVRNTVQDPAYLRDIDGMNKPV

[8] = target: Sodium-dependent dopamine transporter (Homo sapiens, UniProt Q01959)
[9] = target: cGMP-inhibited 3',5'-cyclic phosphodiesterase 3A (Homo sapiens, UniProt Q14432); type: functional
Chain of cGMP-inhibited 3',5'-cyclic phosphodiesterase 3A (Q14432 whole entry): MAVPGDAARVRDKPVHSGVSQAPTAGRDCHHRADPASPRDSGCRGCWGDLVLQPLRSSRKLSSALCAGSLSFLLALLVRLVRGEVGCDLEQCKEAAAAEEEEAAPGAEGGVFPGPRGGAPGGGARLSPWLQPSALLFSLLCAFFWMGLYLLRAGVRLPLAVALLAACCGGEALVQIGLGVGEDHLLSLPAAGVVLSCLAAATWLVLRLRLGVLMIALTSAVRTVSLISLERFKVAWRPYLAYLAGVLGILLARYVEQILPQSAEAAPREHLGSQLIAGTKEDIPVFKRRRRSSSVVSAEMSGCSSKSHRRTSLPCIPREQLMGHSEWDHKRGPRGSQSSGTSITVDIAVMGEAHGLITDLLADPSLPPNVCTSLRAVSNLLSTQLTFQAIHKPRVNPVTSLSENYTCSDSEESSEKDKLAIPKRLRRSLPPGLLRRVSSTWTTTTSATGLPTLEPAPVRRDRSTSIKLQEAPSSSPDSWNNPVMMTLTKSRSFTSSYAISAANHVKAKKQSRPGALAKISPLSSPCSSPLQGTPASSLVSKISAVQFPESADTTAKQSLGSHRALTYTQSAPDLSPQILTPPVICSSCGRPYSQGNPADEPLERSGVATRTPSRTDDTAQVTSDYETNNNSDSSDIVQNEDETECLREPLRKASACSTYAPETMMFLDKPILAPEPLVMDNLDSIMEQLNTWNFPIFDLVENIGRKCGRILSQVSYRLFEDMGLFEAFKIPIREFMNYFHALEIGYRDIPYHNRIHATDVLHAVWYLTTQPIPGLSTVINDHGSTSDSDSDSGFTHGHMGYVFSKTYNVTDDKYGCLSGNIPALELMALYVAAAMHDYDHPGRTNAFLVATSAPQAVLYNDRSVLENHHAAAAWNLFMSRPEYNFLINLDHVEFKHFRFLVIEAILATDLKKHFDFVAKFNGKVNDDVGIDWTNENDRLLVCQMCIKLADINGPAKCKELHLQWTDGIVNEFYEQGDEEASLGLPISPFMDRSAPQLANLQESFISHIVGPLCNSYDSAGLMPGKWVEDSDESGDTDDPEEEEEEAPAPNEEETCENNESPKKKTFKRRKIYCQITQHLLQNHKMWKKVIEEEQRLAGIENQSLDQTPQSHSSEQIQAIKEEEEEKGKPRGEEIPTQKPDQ

[10] = target: Sodium-dependent serotonin transporter (Homo sapiens, UniProt P31645)
D(3) dopamine receptor = D(3) dopamine receptor (Homo sapiens, UniProt P35462)
Chain of D(3) dopamine receptor (P35462 whole entry): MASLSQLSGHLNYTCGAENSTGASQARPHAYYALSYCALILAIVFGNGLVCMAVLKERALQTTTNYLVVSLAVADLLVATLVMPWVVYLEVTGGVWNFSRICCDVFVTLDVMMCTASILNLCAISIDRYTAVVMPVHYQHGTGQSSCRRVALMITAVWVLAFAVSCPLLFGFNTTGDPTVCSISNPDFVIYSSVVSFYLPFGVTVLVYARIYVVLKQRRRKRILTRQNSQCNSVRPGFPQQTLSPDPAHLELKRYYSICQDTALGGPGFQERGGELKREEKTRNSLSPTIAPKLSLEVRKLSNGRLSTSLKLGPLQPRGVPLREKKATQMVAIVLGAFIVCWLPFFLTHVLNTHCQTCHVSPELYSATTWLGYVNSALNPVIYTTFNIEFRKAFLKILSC

[11] = target: 5-hydroxytryptamine receptor 2B (Homo sapiens, UniProt P41595); type: functional, cell-based
Chain of 5-hydroxytryptamine receptor 2B (P41595 whole entry): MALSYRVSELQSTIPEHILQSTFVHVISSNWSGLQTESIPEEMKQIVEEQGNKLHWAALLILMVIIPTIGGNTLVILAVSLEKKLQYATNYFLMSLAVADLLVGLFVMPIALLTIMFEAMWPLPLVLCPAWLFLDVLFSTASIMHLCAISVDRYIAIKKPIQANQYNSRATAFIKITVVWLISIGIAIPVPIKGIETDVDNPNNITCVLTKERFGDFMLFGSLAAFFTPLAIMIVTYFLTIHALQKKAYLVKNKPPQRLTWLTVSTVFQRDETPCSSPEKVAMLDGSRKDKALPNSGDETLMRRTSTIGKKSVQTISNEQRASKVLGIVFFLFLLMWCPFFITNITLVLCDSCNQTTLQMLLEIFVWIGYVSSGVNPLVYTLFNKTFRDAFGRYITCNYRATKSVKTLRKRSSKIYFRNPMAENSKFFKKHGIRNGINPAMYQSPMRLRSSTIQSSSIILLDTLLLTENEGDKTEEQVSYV
Also: assay procedure not described here.

CCOCC(O)COc1ccc(NC(=O)CC[S+](C)C)cc1 (stereo unspecified)
AC50 (Glucocorticoid receptor): > 30 µM
AC50 [1]: > 30 µM
AC50 (Mu-type opioid receptor): > 30 µM
AC50 [2]: > 30 µM
AC50 (Cannabinoid receptor 1): > 30 µM
AC50 [3]: > 30 µM

CCC[C@@]1(CCc2ccccc2)CC(O)=C([C@H](CC)c2cccc(NS(=O)(=O)c3ccc(C(F)(F)F)cn3)c2)C(=O)O1
AC50 [4]: > 30 µM
AC50 (Glucocorticoid receptor): > 30 µM
AC50 [1]: > 30 µM
AC50 (Mu-type opioid receptor): > 30 µM
AC50 [2]: 22 µM
AC50 (Cannabinoid receptor 1): > 30 µM
AC50 [3]: > 30 µM

CN1CC2c3ccccc3Oc3ccc(Cl)cc3C2C1 (stereo unspecified) [ASENAPINE]
AC50 [4]: > 30 µM
AC50 (Glucocorticoid receptor): > 30 µM
AC50 [1]: > 30 µM
AC50 (Mu-type opioid receptor): > 30 µM
AC50 [2]: 6.5 µM
AC50 (Cannabinoid receptor 1): > 30 µM
AC50 [3]: 19 µM

Cn1cnc2c(F)c(Nc3ccc(Br)cc3F)c(C(=O)NOCCO)cc21 [BINIMETINIB]
AC50 [4]: > 30 µM
AC50 (Glucocorticoid receptor): > 30 µM
AC50 [1]: > 30 µM
AC50 (Mu-type opioid receptor): > 30 µM
AC50 [2]: > 30 µM
AC50 (Cannabinoid receptor 1): > 30 µM
AC50 [3]: > 30 µM

C[C@H](CCC(=O)O)[C@H]1CC[C@H]2[C@@H]3[C@H](O)C[C@@H]4C[C@H](O)CC[C@]4(C)[C@H]3CC[C@]12C [CHENODIOL]
AC50 [4]: > 30 µM
AC50 [1]: > 30 µM
AC50 (Mu-type opioid receptor): > 30 µM
AC50 [2]: > 30 µM
AC50 (Cannabinoid receptor 1): > 30 µM
AC50 [3]: > 30 µM

O=C(O)[C@H]1/C(=C/CO)O[C@@H]2CC(=O)N21 [CLAVULANIC ACID]
AC50 (Glucocorticoid receptor): > 30 µM
AC50 [1]: > 30 µM
AC50 (Mu-type opioid receptor): > 30 µM
AC50 [2]: > 30 µM
AC50 (Cannabinoid receptor 1): > 30 µM
AC50 [3]: > 30 µM

CC(C)/N=c1\cc2n(-c3ccc(Cl)cc3)c3ccccc3nc-2cc1Nc1ccc(Cl)cc1 [CLOFAZIMINE]
AC50 [5]: > 30 µM
AC50 (Glucocorticoid receptor): > 30 µM
AC50 [6]: > 30 µM
AC50 [1]: 13 µM
AC50 [7]: 14 µM
AC50 (Cannabinoid receptor 1): > 30 µM
AC50 [3]: > 30 µM

C[C@H](Nc1ncnc2[nH]cnc12)c1cc2cccc(Cl)c2c(=O)n1-c1ccccc1 [DUVELISIB]
AC50 [4]: > 30 µM
AC50 [8]: > 30 µM
AC50 (Glucocorticoid receptor): > 30 µM
AC50 [9]: 16.8 µM
AC50 [10]: > 30 µM
AC50 (D(3) dopamine receptor): > 30 µM
AC50 [1]: > 30 µM
AC50 (Mu-type opioid receptor): > 30 µM
AC50 [11]: > 30 µM
AC50 [2]: > 30 µM
AC50 (Cannabinoid receptor 1): > 30 µM
AC50 [3]: > 30 µM

NCC1(CC(=O)O)CCCCC1 [GABAPENTIN]
AC50 [4]: > 30 µM
AC50 [5]: > 30 µM
AC50 [8]: > 30 µM
AC50 (Glucocorticoid receptor): > 30 µM
AC50 [6]: > 10 µM
AC50 [9]: > 30 µM
AC50 (D(3) dopamine receptor): > 30 µM
AC50 (Mu-type opioid receptor): > 30 µM
AC50 [7]: > 10 µM
AC50 [11]: > 30 µM
AC50 [2]: > 30 µM
AC50 (Cannabinoid receptor 1): > 30 µM
AC50 [3]: > 30 µM

C[C@@H](O)[C@H]1C(=O)N2C(C(=O)O)=C(SCCN=CN)C[C@H]12 [IMIPENEM ANHYDROUS]
AC50 [4]: > 300 µM
AC50 (Glucocorticoid receptor): > 300 µM
AC50 [1]: 260 µM
AC50 (Mu-type opioid receptor): > 300 µM
AC50 [2]: > 2400 µM
AC50 (Cannabinoid receptor 1): > 300 µM
AC50 [3]: > 300 µM

O=C1[C@@H]2[C@H]3CC[C@H](C3)[C@@H]2C(=O)N1C[C@@H]1CCCC[C@H]1CN1CCN(c2nsc3ccccc23)CC1 [LURASIDONE]
AC50 [4]: > 30 µM
AC50 (Glucocorticoid receptor): > 10 µM
AC50 [9]: > 30 µM
AC50 [10]: > 30 µM
AC50 (D(3) dopamine receptor): 0.0042 µM
AC50 (Mu-type opioid receptor): > 30 µM
AC50 [11]: > 30 µM
AC50 [2]: > 30 µM
AC50 (Cannabinoid receptor 1): > 30 µM

CO[C@@H]1[C@@H](OC(N)=O)[C@@H](O)[C@H](Oc2ccc3c(O)c(NC(=O)c4ccc(O)c(CC=C(C)C)c4)c(=O)oc3c2C)OC1(C)C [NOVOBIOCIN]
AC50 [4]: > 30 µM
AC50 (Glucocorticoid receptor): > 30 µM
AC50 [1]: > 30 µM
AC50 (Mu-type opioid receptor): > 30 µM
AC50 [2]: > 30 µM
AC50 (Cannabinoid receptor 1): > 30 µM
AC50 [3]: > 30 µM

CC(=O)SCC(Cc1ccccc1)C(=O)NCC(=O)OCc1ccccc1 (stereo unspecified) [RACECADOTRIL]
AC50 [5]: > 30 µM
AC50 (Glucocorticoid receptor): 6.3 µM
AC50 [6]: > 10 µM
AC50 [1]: > 30 µM
AC50 (Mu-type opioid receptor): > 30 µM
AC50 [7]: 8.6 µM
AC50 (Cannabinoid receptor 1): 17 µM
AC50 [3]: > 30 µM

COc1cc2c(cc1OC)C1CC(=O)C(CC(C)C)CN1CC2 (stereo unspecified) [TETRABENAZINE]
AC50 [4]: > 30 µM
AC50 [1]: > 30 µM
AC50 (Mu-type opioid receptor): > 30 µM
AC50 [2]: > 30 µM
AC50 (Cannabinoid receptor 1): > 30 µM
AC50 [3]: > 30 µM

CC(C)(CO)c1cc2cc(NC(=O)C3(c4ccc5c(c4)OC(F)(F)O5)CC3)c(F)cc2n1C[C@@H](O)CO [TEZACAFTOR]
AC50 (Glucocorticoid receptor): > 30 µM
AC50 [1]: > 30 µM
AC50 (Mu-type opioid receptor): > 30 µM
AC50 (Cannabinoid receptor 1): > 30 µM
AC50 [3]: > 30 µM

c1cnc2cc3c(cc2n1)[C@@H]1CNC[C@H]3C1 [VARENICLINE]
AC50 [4]: > 30 µM
AC50 [1]: > 30 µM
AC50 (Mu-type opioid receptor): > 30 µM
AC50 [2]: > 30 µM
AC50 (Cannabinoid receptor 1): > 30 µM
AC50 [3]: > 30 µM

Nc1c2c(nc3ccccc13)CCCC2O (stereo unspecified) [VELNACRINE]
AC50 [4]: > 30 µM
AC50 (Glucocorticoid receptor): 14 µM
AC50 [1]: > 30 µM
AC50 (Mu-type opioid receptor): > 30 µM
AC50 [2]: > 30 µM
AC50 (Cannabinoid receptor 1): > 30 µM
AC50 [3]: > 30 µM

Reference: ChEMBL document CHEMBL5291721, “A preclinical secondary pharmacology resource illuminates target-adverse drug reaction associations of marketed drugs” (Nat Commun, 2023)
